In patent publication US9974775B2, “Substituted imidazoles as N-type calcium channel blockers” (Janssen Pharmaceutica NV, priority 2013, dated 2018):
Where two headings read alike, the source gives them in different places.

Columns and labels:
[1] = tested on: mechanical allodynia after L5/L6 spinal nerve ligation; assay: Sciatic nerve ligation (SNL) model of neuropathic pain; format: in vivo; settings: rats; dose 50 mg/kg; response at Tmax
Description: Left L5 and L6 spinal nerves are isolated adjacent to the vertebral column and were ligated with 5-0 silk suture distal to the dorsal root ganglion, as described by Kim and Chung (1992). The incision was closed with the help of GLUture topical tissue adhesive. At 14 days post-surgery (one day prior to test compound administration), mechanical allodynia was quantified using eight von Frey filaments, calibrated in the range 0.4-15.1 g (Nielsen et al 2005). Rats were placed into individual plastic containers on top of a suspended wire mesh grid and acclimated to the test chambers for at least 15 min. Filaments were applied perpendicular to the mid-plantar paw surface, with enough force to cause slight buckling, and held in place for 6-8 sec until a response was noted as a sharp paw withdrawal, flinching, licking and/or biting immediately upon removal of the filament (Nielsen et al 2005). […] Test compounds of Formula (I) were administered and a response was measured at Tmax. The maximum possible effect (% MPE) was determined to be 100% if the sensitivity in the ipsilateral paw neared that of the contralateral paw. Values from vehicle-treated animals were considered 0%. The compound effect was determined based on these values.

human N-type Ca channel [2] = target: T1, human N-type Ca channel (Homo sapiens, UniProt Q00975); assay: Calcium influx assay (FDSS); format: cell-based; parameters: host or cells: HEK 293; settings: HEK 293 cells, depolarized with 100 mM KCl
T1 sequence (Q00975 whole entry): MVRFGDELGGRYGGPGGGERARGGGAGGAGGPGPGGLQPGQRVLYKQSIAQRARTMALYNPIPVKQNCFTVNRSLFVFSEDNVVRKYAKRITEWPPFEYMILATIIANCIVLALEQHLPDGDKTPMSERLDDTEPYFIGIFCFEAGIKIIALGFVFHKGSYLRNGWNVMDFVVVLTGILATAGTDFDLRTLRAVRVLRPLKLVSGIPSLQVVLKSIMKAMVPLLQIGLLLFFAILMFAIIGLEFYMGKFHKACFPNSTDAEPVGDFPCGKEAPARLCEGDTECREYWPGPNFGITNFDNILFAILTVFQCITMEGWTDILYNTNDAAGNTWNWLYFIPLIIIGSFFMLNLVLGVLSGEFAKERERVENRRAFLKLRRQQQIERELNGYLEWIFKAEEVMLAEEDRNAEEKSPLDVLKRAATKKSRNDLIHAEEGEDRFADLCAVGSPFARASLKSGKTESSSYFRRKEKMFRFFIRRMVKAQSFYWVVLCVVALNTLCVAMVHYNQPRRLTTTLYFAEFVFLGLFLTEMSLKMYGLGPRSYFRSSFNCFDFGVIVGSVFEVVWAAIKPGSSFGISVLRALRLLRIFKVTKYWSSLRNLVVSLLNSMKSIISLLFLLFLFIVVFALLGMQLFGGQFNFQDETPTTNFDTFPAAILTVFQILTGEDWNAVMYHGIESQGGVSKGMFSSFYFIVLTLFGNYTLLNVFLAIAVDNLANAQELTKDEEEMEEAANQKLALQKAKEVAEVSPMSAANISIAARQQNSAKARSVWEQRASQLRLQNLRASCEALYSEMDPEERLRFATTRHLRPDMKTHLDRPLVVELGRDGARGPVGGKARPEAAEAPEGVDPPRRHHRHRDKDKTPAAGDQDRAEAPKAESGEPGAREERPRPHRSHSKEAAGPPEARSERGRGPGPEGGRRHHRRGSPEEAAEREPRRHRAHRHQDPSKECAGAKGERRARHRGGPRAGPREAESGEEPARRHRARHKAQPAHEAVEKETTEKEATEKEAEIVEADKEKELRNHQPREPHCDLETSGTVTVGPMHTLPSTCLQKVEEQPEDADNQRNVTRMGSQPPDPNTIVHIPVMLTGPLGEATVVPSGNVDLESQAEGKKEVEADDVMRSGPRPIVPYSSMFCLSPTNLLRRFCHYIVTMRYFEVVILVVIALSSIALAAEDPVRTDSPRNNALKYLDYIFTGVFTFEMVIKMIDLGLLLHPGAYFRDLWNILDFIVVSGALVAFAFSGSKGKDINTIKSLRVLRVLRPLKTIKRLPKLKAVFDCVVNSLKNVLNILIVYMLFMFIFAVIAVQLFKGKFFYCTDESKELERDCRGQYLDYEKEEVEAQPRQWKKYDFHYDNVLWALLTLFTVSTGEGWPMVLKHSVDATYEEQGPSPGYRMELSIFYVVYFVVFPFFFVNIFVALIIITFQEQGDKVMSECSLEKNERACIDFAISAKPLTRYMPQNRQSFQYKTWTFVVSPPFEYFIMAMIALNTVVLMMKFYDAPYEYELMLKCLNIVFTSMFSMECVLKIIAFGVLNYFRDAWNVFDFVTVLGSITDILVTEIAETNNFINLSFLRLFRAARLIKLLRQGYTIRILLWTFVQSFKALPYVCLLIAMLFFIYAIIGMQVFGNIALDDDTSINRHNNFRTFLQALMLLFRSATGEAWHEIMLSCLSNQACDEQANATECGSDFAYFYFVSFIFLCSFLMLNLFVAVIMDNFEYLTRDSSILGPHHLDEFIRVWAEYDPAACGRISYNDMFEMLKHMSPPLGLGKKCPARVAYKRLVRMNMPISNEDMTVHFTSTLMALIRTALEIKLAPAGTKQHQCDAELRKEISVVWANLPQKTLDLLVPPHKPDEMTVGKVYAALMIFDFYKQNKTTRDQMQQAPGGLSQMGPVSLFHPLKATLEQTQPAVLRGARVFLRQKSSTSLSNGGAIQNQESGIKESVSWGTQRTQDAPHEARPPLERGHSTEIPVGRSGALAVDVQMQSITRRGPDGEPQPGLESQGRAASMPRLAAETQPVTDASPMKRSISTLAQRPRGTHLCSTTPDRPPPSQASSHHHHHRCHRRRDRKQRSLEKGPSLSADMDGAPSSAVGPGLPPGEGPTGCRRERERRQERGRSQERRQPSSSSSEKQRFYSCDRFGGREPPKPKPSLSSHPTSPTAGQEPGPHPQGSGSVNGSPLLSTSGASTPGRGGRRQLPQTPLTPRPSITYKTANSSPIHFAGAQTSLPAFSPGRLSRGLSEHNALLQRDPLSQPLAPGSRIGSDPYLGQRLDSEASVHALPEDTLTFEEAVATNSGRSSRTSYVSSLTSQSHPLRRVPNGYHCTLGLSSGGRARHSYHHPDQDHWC
T1 sequence (P54284 whole entry partner): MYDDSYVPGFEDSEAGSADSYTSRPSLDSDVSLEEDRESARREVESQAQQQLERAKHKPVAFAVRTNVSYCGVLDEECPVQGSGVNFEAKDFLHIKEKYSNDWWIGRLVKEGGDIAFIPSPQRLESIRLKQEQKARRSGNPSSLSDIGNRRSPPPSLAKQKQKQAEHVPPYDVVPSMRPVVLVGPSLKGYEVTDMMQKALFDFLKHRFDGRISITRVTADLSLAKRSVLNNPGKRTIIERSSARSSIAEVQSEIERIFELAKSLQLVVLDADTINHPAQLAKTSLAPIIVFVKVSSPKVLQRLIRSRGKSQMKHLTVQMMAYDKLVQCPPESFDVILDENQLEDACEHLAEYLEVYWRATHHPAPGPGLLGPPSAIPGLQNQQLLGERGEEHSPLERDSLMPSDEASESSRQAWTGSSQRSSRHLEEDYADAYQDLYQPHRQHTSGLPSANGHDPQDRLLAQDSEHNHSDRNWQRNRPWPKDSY
T1 sequence (P54289 25-956 partner limits assumed): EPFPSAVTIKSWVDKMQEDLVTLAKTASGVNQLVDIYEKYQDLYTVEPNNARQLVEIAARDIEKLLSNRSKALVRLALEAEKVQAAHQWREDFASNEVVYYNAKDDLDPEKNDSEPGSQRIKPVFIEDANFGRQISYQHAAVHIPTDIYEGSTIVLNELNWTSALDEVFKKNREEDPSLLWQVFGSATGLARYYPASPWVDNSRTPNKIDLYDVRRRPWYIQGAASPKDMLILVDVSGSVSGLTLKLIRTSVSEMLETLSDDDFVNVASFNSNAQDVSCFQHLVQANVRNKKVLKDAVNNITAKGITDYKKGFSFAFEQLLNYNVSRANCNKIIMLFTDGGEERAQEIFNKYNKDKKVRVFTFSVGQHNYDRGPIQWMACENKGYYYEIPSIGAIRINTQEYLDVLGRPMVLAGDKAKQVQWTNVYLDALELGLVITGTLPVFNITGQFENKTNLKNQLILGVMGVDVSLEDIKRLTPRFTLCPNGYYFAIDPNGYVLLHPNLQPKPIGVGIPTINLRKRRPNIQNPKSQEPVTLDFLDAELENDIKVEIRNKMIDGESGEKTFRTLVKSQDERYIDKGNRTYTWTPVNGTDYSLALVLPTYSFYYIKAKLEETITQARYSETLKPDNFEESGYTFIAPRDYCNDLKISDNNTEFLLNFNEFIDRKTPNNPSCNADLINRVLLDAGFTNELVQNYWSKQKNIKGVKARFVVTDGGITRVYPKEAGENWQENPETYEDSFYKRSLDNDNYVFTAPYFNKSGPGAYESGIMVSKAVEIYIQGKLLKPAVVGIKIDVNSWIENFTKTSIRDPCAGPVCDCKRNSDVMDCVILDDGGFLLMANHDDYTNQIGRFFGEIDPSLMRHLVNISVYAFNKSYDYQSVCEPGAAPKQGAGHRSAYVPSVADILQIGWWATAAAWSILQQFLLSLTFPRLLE
T1 sequence (P54289 957-1103 partner limits assumed): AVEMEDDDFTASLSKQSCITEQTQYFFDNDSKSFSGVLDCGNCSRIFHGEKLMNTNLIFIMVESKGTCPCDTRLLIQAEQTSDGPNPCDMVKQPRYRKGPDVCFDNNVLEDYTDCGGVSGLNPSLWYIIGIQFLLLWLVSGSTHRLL
Procedure: All cell culture reagents were procured from HyClone and other reagents were from Fisher. Recombinant HEK 293 cells expressing human N-type Ca channel (Millipore) were maintained in DMEM F12 containing 10% FBS and selection antibiotics at 37° C. in 5% CO2.
Cells were incubated at 30° C. in 5% CO2 overnight. The medium was removed and cells were loaded with Fluo8 dye (AAT Bioquest) at 37° C. and 30° C., 30 min each in darkness. Cells were washed four times with wash buffer (16 mM Herep pH 7.2, 2 mM CaCl2, 1 mM MgCl2, 5 mM glucose, 140 mM choline chloride and 2 mM KCl) leaving 15 μL buffer after the last wash. Compounds of Formula (I), serially diluted, were added to the cell plate. The plates were incubated in darkness for 15 min. Cells were depolarized with 100 mM KCl and Ca influx was measured.

human N-type Ca channel [3] = target: T1, human N-type Ca channel; assay: Measurement of electrophysiological response (QPatch)
Procedure: The recombinant cell line described above was used in the measurement of electrophysiological properties with QPatch (Sophion). […] Prior to the experiment, the flasks were moved to 30° C. and incubated for 48-72 hrs. On the day of assaying, cells were detached and harvested. The cell pellet was re-suspended in SMF4HEK (HyClone)/25 mM HEPS at 2-5 million/mL and placed on the QStirrer of the QPatch for 30-60 min prior to the start of the assay. […] Microtiter-Plate/Reference Buffer contained 140 mM TEA-Cl, 10 mM BaCl2, 0.8 mM MgCl2, 10 mM HEPES pH˜7.4 adjusted with TEA-OH/HCl, and ˜300 mOsm. Cells were transferred to a QPatch 48 plate and gigaseal was formed. The plate was perfused with intracellular and extracellular buffer. […] In brief, cells were depolarized from resting potential of −80 mV to +20 mV and current was recorded. Data was plotted as percent inhibition vs concentration of the compound and IC50 values were generated using Graphpad Prism non-linear regression analysis.

[4] = read-out: Qpatch Pulse = 1 (percent inhibition)
[5] = concentration range 0.01-0.3 μM
[6] = N Type IC50 Data Qpatch Pulse = 1, Pulse = 1, concentration range 0.3-10 μM
[7] = N Type IC50 Data Qpatch Pulse = 15, Pulse = 15, concentration range 0.3-10 μM

`COc1ccccc1-c1nc(C2CC(C)(C)OC(C)(C)C2)cn1-c1ccc(C#N)cc1` [Cpd 1, 4-(2-(2-methoxyphenyl)-4-(2,2,6,6-tetramethyltetrahydro-2H-pyran-4-yl)-1H-imidazol-1-yl)benzonitrile] was tested, and the “SNL(% MPE)” value [1] was 64.07 ± 12.31%.
Work on `CC1(C)CC(c2cn(-c3ccc(C#N)cc3)c(C3CC3)n2)CC(C)(C)O1` [Cpd 57, 4-[2-Cyclopropyl-4-(2,2,6,6-tetramethyltetrahydro-2H-pyran-4-yl)-1H-imidazol-1-yl]benzonitrile] yielded an IC50 (human N-type Ca channel [2]) of no less than 10000 nM.
In the case of `COc1ncccc1-c1nc(C2CC(C)(C)OC(C)(C)C2)cn1-c1cc(F)cc(C#N)c1` [Cpd 73, 3-fluoro-5-(2-(2-methoxypyridin-3-yl)-4-(2,2,6,6-tetramethyltetrahydro-2H-pyran-4-yl)-1H-imidazol-1-yl)benzonitrile], the “N Type IC50 Data Qpatch Pulse = 1” value (human N-type Ca channel [3]; concentration range 0.01-1 μM) is reported as “poor fit” and the “N Type IC50 Data Qpatch Pulse = 15” value (human N-type Ca channel [3]; concentration range 0.01-1 μM) is reported as “poor fit”.
Compound `COc1ccccc1-c1nc(C2CC(C)(C)OC(C)(C)C2)cn1-c1ccc(F)c(C#N)c1` [Cpd 74, 2-Fluoro-5-[2-(2-methoxy-phenyl)-4-(2,2,6,6-tetramethyl-tetrahydro-pyran-4-yl)-imidazol-1-yl]-benzonitrile] has an IC50 (human N-type Ca channel [2]) of 488 nM, an inhibition at 10 µM (human N-type Ca channel [3]; [4]) of 36% and an inhibition at 10 µM (human N-type Ca channel [3]; read-out: Qpatch Pulse = 15 (percent inhibition)) of 44%.
`COc1cc(-n2cc(C3CC(C)(C)OC(C)(C)C3)nc2-c2cccnc2OC)ccc1C#N` [Cpd 77, 2-Methoxy-4-[2-(2-methoxypyridin-3-yl)-4-(2,2,6,6-tetramethyltetrahydro-2H-pyran-4-yl)-1H-imidazol-1-yl]benzonitrile] gave an IC50 (human N-type Ca channel [2]) of no less than 10000 nM.
With `COc1ncccc1-c1nc(C2CC(C)(C)OC(C)(C)C2)cn1-c1ccc(C#N)c(Cl)c1` [Cpd 78, 2-Chloro-4-[2-(2-methoxypyridin-3-yl)-4-(2,2,6,6-tetramethyltetrahydro-2H-pyran-4-yl)-1H-imidazol-1-yl]benzonitrile] the “Qpatch Pulse = 1 (percent inhibition)” value (human N-type Ca channel [3]; concentration range 0.01-1 μM) was 58%.
In the case of `COc1ncccc1-c1nc(C2CC(C)(C)OC(C)(C)C2)cn1-c1cc(F)c(C#N)c(F)c1` [Cpd 82, 2,6-difluoro-4-(2-(2-methoxypyridin-3-yl)-4-(2,2,6,6-tetramethyltetrahydro-2H-pyran-4-yl)-1H-imidazol-1-yl)benzonitrile], the “N Type IC50 Data Qpatch Pulse = 1” value (human N-type Ca channel [3]; [5]) is reported as “poor fit” and the “N Type IC50 Data Qpatch Pulse = 15” value (human N-type Ca channel [3]; [5]) is reported as “poor fit”.
With `COc1ccccc1-c1nc(C2CC(C)(C)OC(C)(C)C2)cn1-c1c(F)cc(C#N)cc1F` [Cpd 83, 3,5-difluoro-4-(2-(2-methoxyphenyl)-4-(2,2,6,6-tetramethyltetrahydro-2H-pyran-4-yl)-1H-imidazol-1-yl)benzonitrile] the “N Type IC50 Data Qpatch Pulse = 1” value (human N-type Ca channel [3]; [5]) was “poor fit” and the “N Type IC50 Data Qpatch Pulse = 15” value (human N-type Ca channel [3]; [5]) was “poor fit”.
In the case of `COc1ncccc1-c1nc(C2CC(C)(C)OC(C)(C)C2)cn1-c1ccc(Cl)c(C#N)c1` [Cpd 84, 2-Chloro-5-[2-(2-methoxypyridin-3-yl)-4-(2,2,6,6-tetramethyltetrahydro-2H-pyran-4-yl)-1H-imidazol-1-yl]benzonitrile], the “Qpatch Pulse = 1 (percent inhibition)” value (human N-type Ca channel [3]; concentration range 0.01-1 μM) is reported as 39%.
For `COc1ccc(-n2cc(C3CC(C)(C)OC(C)(C)C3)nc2-c2cccnc2OC)cc1C#N` [Cpd 85, 2-Methoxy-5-[2-(2-methoxypyridin-3-yl)-4-(2,2,6,6-tetramethyltetrahydro-2H-pyran-4-yl)-1H-imidazol-1-yl]benzonitrile], the “Qpatch Pulse = 1 (percent inhibition)” value (human N-type Ca channel [3]; concentration range 0.01-1 μM) was 45%.
For `COc1ncncc1-c1nc(C2CC(C)(C)OC(C)(C)C2)cn1-c1ccc(C#N)cc1` [Cpd 86, 4-[2-(4-Methoxypyrimidin-5-yl)-4-(2,2,6,6-tetramethyltetrahydro-2H-pyran-4-yl)-1H-imidazol-1-yl]benzonitrile], the “Qpatch Pulse = 1 (percent inhibition)” value (human N-type Ca channel [3]; concentration range 0.01-1 μM) was 28%.
`COc1nccnc1-c1nc(C2CC(C)(C)OC(C)(C)C2)cn1-c1ccc(C#N)cc1` [Cpd 87, 4-[2-(3-Methoxypyrazin-2-yl)-4-(2,2,6,6-tetramethyltetrahydro-2H-pyran-4-yl)-1H-imidazol-1-yl]benzonitrile] was tested, and the “N Type IC50 Data Qpatch Pulse = 1” value (human N-type Ca channel [3]; [5]) was “poor fit” and the “N Type IC50 Data Qpatch Pulse = 15” value (human N-type Ca channel [3]; [5]) was “poor fit”.
`COc1nccnc1-c1nc(C2CC(C)(C)OC(C)(C)C2)cn1-c1ccc(C#N)c(F)c1` [Cpd 88, 2-fluoro-4-(2-(3-methoxypyrazin-2-yl)-4-(2,2,6,6-tetramethyltetrahydro-2H-pyran-4-yl)-1H-imidazol-1-yl)benzonitrile] was tested, and the “N Type IC50 Data Qpatch Pulse = 15” value (human N-type Ca channel [3]; [5]) was “poor fit”.
`CCOc1ncccc1-c1nc(C2CC(C)(C)OC(C)(C)C2)cn1-c1ccc(C#N)c(F)c1` [Cpd 89, 4-(2-(2-ethoxypyridin-3-yl)-4-(2,2,6,6-tetramethyltetrahydro-2H-pyran-4-yl)-1H-imidazol-1-yl)-2-fluorobenzonitrile] was tested, and the “N Type IC50 Data Qpatch Pulse = 15” value (human N-type Ca channel [3]; [5]) was “poor fit”.
`COc1ccccc1-c1nc(C2CC(C)(C)OC(C)(C)C2)c(C)n1-c1ccc(Cl)cc1` [Cpd 90, 1-(4-chlorophenyl)-2-(2-methoxyphenyl)-5-methyl-4-(2,2,6,6-tetramethyltetrahydro-2H-pyran-4-yl)-1H-imidazole] was tested, and the “N Type IC50 Data Qpatch Pulse = 1” value (human N-type Ca channel [3]; [5]) was “poor fit” and the “N Type IC50 Data Qpatch Pulse = 15” value (human N-type Ca channel [3]; [5]) was “poor fit”.
For `COc1ccccc1-c1nc(C2CC(C)(C)OC(C)(C)C2)cn1S(=O)(=O)C1CC1` [Cpd 95, 1-(Cyclopropylsulfonyl)-2-(2-methoxyphenyl)-4-(2,2,6,6-tetramethyltetrahydro-2H-pyran-4-yl)-1H-imidazole], the IC50 (human N-type Ca channel [2]) was no less than 10000 nM.
`COc1ccccc1-c1nc(C2CC(C)(C)OC(C)(C)C2)cn1S(=O)(=O)CC(C)C` [Cpd 96, 2-(2-Methoxyphenyl)-1-[(2-methylpropyl)sulfonyl]-4-(2,2,6,6-tetramethyltetrahydro-2H-pyran-4-yl)-1H-imidazole] was tested, and the IC50 (human N-type Ca channel [3]) was no less than 10000 nM.
In the case of `COc1ccccc1-c1nc(C2CC(C)(C)OC(C)(C)C2)cn1Cc1cncnc1` [Cpd 100, 5-{[2-(2-Methoxyphenyl)-4-(2,2,6,6-tetramethyltetrahydro-2H-pyran-4-yl)-1H-imidazol-1-yl]methyl}pyrimidine], the IC50 (human N-type Ca channel [2]) is reported as no less than 10000 nM, the IC50 (human N-type Ca channel [3]; [6]) is reported as no less than 10000 nM and the IC50 (human N-type Ca channel [3]; [7]) is reported as no less than 10000 nM.
`COc1ccccc1-c1nc(C2(O)CC(C)(C)OC(C)(C)C2)cn1-c1ccc(F)c(Br)c1` [Cpd 106, 4-[1-(3-Bromo-4-fluorophenyl)-2-(2-methoxyphenyl)-1H-imidazol-4-yl]-2,2,6,6-tetramethyltetrahydro-2H-pyran-4-ol] was tested, and the IC50 (human N-type Ca channel [2]) was 148 nM, the IC50 (human N-type Ca channel [3]; [7]) was 5030 nM and the inhibition at 10 µM (human N-type Ca channel [3]; [4]) was 71%.
`COc1ncccc1-c1nc(C2(O)CC(C)(C)OC(C)(C)C2)cn1-c1ccc(F)c(C#N)c1` [Cpd 116, 2-Fluoro-5-[4-(4-hydroxy-2,2,6,6-tetramethyltetrahydro-2H-pyran-4-yl)-2-(2-methoxypyridin-3-yl)-1H-imidazol-1-yl]benzonitrile] gave an IC50 (human N-type Ca channel [2]) of 1370 nM, an IC50 (human N-type Ca channel [3]; N Type IC50 Data Qpatch Pulse = 1, Pulse = 1, concentration range 0.01-1 μM) greater than 1000 nM and an IC50 (human N-type Ca channel [3]; N Type IC50 Data Qpatch Pulse = 15, Pulse = 15, concentration range 0.01-1 μM) greater than 1000 nM.
`COc1ccccc1-c1nc(C2(O)CC(C)(C)OC(C)(C)C2)cn1-c1ccc(C#N)c(F)c1` [Cpd 118, 2-Fluoro-4-[4-(4-hydroxy-2,2,6,6-tetramethyltetrahydro-2H-pyran-4-yl)-2-(2-methoxyphenyl)-1H-imidazol-1-yl]benzonitrile] gave an IC50 (human N-type Ca channel [3]; [7]) of no less than 10000 nM.
In the case of `COc1ccccc1-c1nc(C2CC(C)(C)OC(C)(C)C2)cn1-c1ccc(C#N)c(C(F)(F)F)c1` [Cpd 121, 4-[2-(2-Methoxyphenyl)-4-(2,2,6,6-tetramethyltetrahydro-2H-pyran-4-yl)-1H-imidazol-1-yl]-2-(trifluoromethyl)benzonitrile], the IC50 (human N-type Ca channel [2]) is reported as 233 nM, the IC50 (human N-type Ca channel [3]; [6]) is reported as 6600 nM and the IC50 (human N-type Ca channel [3]; [7]) is reported as 3300 nM.
`COc1ccccc1-c1nc(C2=CC(C)(C)OC(C)(C)C2)cn1-c1ccc(C#N)c(F)c1` [Cpd 126, 2-Fluoro-4-[2-(2-methoxyphenyl)-4-(2,2,6,6-tetramethyl-3,6-dihydro-2H-pyran-4-yl)-1H-imidazol-1-yl]benzonitrile] gave an IC50 (human N-type Ca channel [2]) of 234 nM and an IC50 (human N-type Ca channel [3]; [7]) of 1900 nM.
